# Reference: PubChem BioAssay AID256 (DTP/NCI, 2004)
# “And” between values parts separate entries of the source, which are not always exact repeats. Equal entries are not always repeated. Inconclusive results and toxic doses are left out.
# Tested on: CD2F1 mice, L1210 leukemia ip, survival T/C
# Test: NCI In Vivo Anticancer Drug Screen. Data for tumor model L1210 Leukemia (intraperitoneal) in CD2F1 (CDF1) mice
# Details: higher = longer survival
# Summary of the method: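 Tumor-bearing mice (transplanted tumor) were split into treated and vehicle control groups, and the measured endpoint of each treated group was divided by that of its vehicle controls.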
# [1] = endpoint: mean survival time, dose: 100.0 mg/kg/injection, schedule: Q04DX003 (ip), vehicle: saline with Tween-80
# [2] = endpoint: mean survival time, dose: 400.0 mg/kg/injection, schedule: Q04DX003 (ip), vehicle: saline with Tween-80
# [3] = endpoint: mean survival time, dose: 100.0 mg/kg/injection, schedule: Q01DX009 (ip), vehicle: saline with Tween-80
# [4] = endpoint: mean survival time, dose: 200.0 mg/kg/injection, schedule: Q01DX009 (ip), vehicle: saline with Tween-80
# [5] = endpoint: mean survival time, dose: 400.0 mg/kg/injection, schedule: Q01DX009 (ip), vehicle: saline with Tween-80
# [6] = endpoint: mean survival time, dose: 100.0 mg/kg/injection, schedule: Q01DX009 (ip), vehicle: Klucel (hydroxypropylcellulose) (HPC)
# [7] = endpoint: mean survival time, dose: 200.0 mg/kg/injection, schedule: Q01DX009 (ip), vehicle: Klucel (hydroxypropylcellulose) (HPC)
# [8] = endpoint: mean survival time, dose: 200.0 mg/kg/injection, schedule: Q04DX003 (ip), vehicle: saline with Tween-80
# [9] = endpoint: mean survival time, dose: 100.0 mg/kg/injection, schedule: Q01DX001 (ip), vehicle: saline with Tween-80
# [10] = endpoint: mean survival time, dose: 200.0 mg/kg/injection, schedule: Q01DX001 (ip), vehicle: saline with Tween-80
# [11] = endpoint: mean survival time, dose: 400.0 mg/kg/injection, schedule: Q01DX001 (ip), vehicle: saline with Tween-80
structure (smiles),measurement,setting,value
Nc1cc(=O)[nH]c(=S)[nH]1.[Pt],T/C,"endpoint: mean survival time, dose: 3.13 mg/kg/injection, schedule: Q04DX003 (ip), vehicle: distilled water + Tween-80",105 % of control
same,T/C,"endpoint: mean survival time, dose: 6.25 mg/kg/injection, schedule: Q04DX003 (ip), vehicle: distilled water + Tween-80",100 % of control
same,T/C,"endpoint: mean survival time, dose: 12.5 mg/kg/injection, schedule: Q04DX003 (ip), vehicle: distilled water + Tween-80",101 % of control
same,T/C,"endpoint: mean survival time, dose: 25.0 mg/kg/injection, schedule: Q04DX003 (ip), vehicle: distilled water + Tween-80",103 % of control
same,T/C,"endpoint: mean survival time, dose: 50.0 mg/kg/injection, schedule: Q04DX003 (ip), vehicle: distilled water + Tween-80",101 % of control
same,T/C,"endpoint: mean survival time, dose: 100.0 mg/kg/injection, schedule: Q04DX003 (ip), vehicle: distilled water + Tween-80",99 % of control
same,T/C,"endpoint: mean survival time, dose: 200.0 mg/kg/injection, schedule: Q04DX003 (ip), vehicle: distilled water + Tween-80",94 % of control
CCCC(Sc1nc(N)nc2nc[nH]c12)C(=O)O (configuration not stated),T/C,"endpoint: mean survival time, dose: 25.0 mg/kg/injection, schedule: Q04DX003 (ip), vehicle: saline with Tween-80",103 % of control
same,T/C,"endpoint: mean survival time, dose: 50.0 mg/kg/injection, schedule: Q04DX003 (ip), vehicle: saline with Tween-80",110 % of control
same,T/C,[1],118 % of control
same,T/C,"endpoint: mean survival time, dose: 150.0 mg/kg/injection, schedule: Q04DX003 (ip), vehicle: saline with Tween-80",151 % of control
same,T/C,"endpoint: mean survival time, dose: 300.0 mg/kg/injection, schedule: Q04DX003 (ip), vehicle: saline with Tween-80",156 % of control
same,T/C,[2],168 % of control
Cc1nc(N)nc(N)c1N1CCN(c2ccc(C(=O)NC(C(=O)O)C(=O)O)cc2)CC1,T/C,"endpoint: median survival time, dose: 1.88 mg/kg/injection, schedule: Q01DX005 (ip), vehicle: Klucel + Tween-80",117 % of control
same,T/C,"endpoint: median survival time, dose: 3.75 mg/kg/injection, schedule: Q01DX005 (ip), vehicle: Klucel + Tween-80",152 % of control
same,T/C,"endpoint: median survival time, dose: 7.5 mg/kg/injection, schedule: Q01DX005 (ip), vehicle: Klucel + Tween-80",150 % of control and 163 % of control
same,T/C,"endpoint: median survival time, dose: 15.0 mg/kg/injection, schedule: Q01DX005 (ip), vehicle: Klucel + Tween-80",167 % of control and 184 % of control
same,T/C,"endpoint: median survival time, dose: 30.0 mg/kg/injection, schedule: Q01DX005 (ip), vehicle: Klucel + Tween-80",181 % of control
CCCCCCCCC/C(=N\Nc1ccc([N+](=O)[O-])cc1[N+](=O)[O-])c1ccccc1,T/C,[3],97 % of control
same,T/C,[4],87 % of control
same,T/C,[5],94 % of control
O=S1(=O)CCCCC1,T/C,"endpoint: mean survival time, dose: 37.5 mg/kg/injection, schedule: Q01DX009 (ip), vehicle: saline",98 % of control
same,T/C,"endpoint: mean survival time, dose: 75.0 mg/kg/injection, schedule: Q01DX001 (ip), vehicle: saline",104 % of control
same,T/C,"endpoint: mean survival time, dose: 75.0 mg/kg/injection, schedule: Q01DX009 (ip), vehicle: saline",98 % of control
same,T/C,"endpoint: mean survival time, dose: 75.0 mg/kg/injection, schedule: Q04DX003 (ip), vehicle: saline",93 % of control
same,T/C,"endpoint: mean survival time, dose: 150.0 mg/kg/injection, schedule: Q01DX001 (ip), vehicle: saline",96 % of control
same,T/C,"endpoint: mean survival time, dose: 150.0 mg/kg/injection, schedule: Q01DX009 (ip), vehicle: saline",98 % of control
same,T/C,"endpoint: mean survival time, dose: 150.0 mg/kg/injection, schedule: Q04DX003 (ip), vehicle: saline",96 % of control
same,T/C,"endpoint: mean survival time, dose: 300.0 mg/kg/injection, schedule: Q01DX001 (ip), vehicle: saline",95 % of control
same,T/C,"endpoint: mean survival time, dose: 300.0 mg/kg/injection, schedule: Q04DX003 (ip), vehicle: saline",100 % of control
O=C(O)CSCc1ccc(Cl)cc1Cl,T/C,"endpoint: mean survival time, dose: 50.0 mg/kg/injection, schedule: Q01DX009 (ip), vehicle: Klucel (hydroxypropylcellulose) (HPC)",98 % of control
same,T/C,[6],87 % of control
same,T/C,[7],93 % of control
O=c1[nH]c(=S)[nH]c(-c2ccccc2)c1CCO,T/C,[1],97 % of control
same,T/C,[8],101 % of control
same,T/C,[2],91 % of control
O=C(O)/C=C/c1ccco1,T/C,[3],95 % of control
same,T/C,[1],101 % of control
same,T/C,[4],94 % of control
same,T/C,[8],98 % of control
same,T/C,[5],96 % of control
same,T/C,[2],108 % of control
Nc1cc2c(ncn2C2OC(CO)C(O)C2O)c(=O)n1N (configuration not stated),T/C,"endpoint: mean survival time, dose: 12.5 mg/kg/injection, schedule: Q01DX005 (ip), vehicle: distilled water + Tween-80",96 % of control
same,T/C,"endpoint: mean survival time, dose: 25.0 mg/kg/injection, schedule: Q01DX005 (ip), vehicle: distilled water + Tween-80",97 % of control
same,T/C,"endpoint: mean survival time, dose: 50.0 mg/kg/injection, schedule: Q01DX005 (ip), vehicle: distilled water + Tween-80",105 % of control
same,T/C,"endpoint: mean survival time, dose: 100.0 mg/kg/injection, schedule: Q01DX005 (ip), vehicle: distilled water + Tween-80",94 % of control
same,T/C,"endpoint: mean survival time, dose: 200.0 mg/kg/injection, schedule: Q01DX005 (ip), vehicle: distilled water + Tween-80",94 % of control
O=C(COc1ccccc1)N/N=C/c1cccc([N+](=O)[O-])c1,T/C,[4],89 % of control
same,T/C,[5],94 % of control
O=C(O)C1C2CCC1C(O)C2 (configuration not stated),T/C,[3],94 % of control
same,T/C,[4],94 % of control
same,T/C,[5],88 % of control
CC1(CO)CCCC2(C)C3=CC(=O)CCC3CCC12 (configuration not stated),T/C,[9],95 % of control
same,T/C,[10],101 % of control
same,T/C,[11],97 % of control
COc1ccc(NS(=O)(=O)c2ccc(NC(C)=O)cc2)cc1,T/C,"endpoint: mean survival time, dose: 100.0 mg/kg/injection, schedule: Q01DX001 (ip), vehicle: Klucel (hydroxypropylcellulose) (HPC)",104 % of control
same,T/C,[6],97 % of control
same,T/C,"endpoint: mean survival time, dose: 200.0 mg/kg/injection, schedule: Q01DX001 (ip), vehicle: Klucel (hydroxypropylcellulose) (HPC)",96 % of control
same,T/C,[7],105 % of control
same,T/C,"endpoint: mean survival time, dose: 400.0 mg/kg/injection, schedule: Q01DX001 (ip), vehicle: Klucel (hydroxypropylcellulose) (HPC)",98 % of control
same,T/C,"endpoint: mean survival time, dose: 400.0 mg/kg/injection, schedule: Q01DX009 (ip), vehicle: Klucel (hydroxypropylcellulose) (HPC)",96 % of control
CCCCCCCCC(O)CCCCCCCCC(=O)O (configuration not stated),T/C,[9],93 % of control
same,T/C,[10],87 % of control
same,T/C,[11],87 % of control
O=C(O)C1=CCCc2ccc(F)cc21,T/C,"endpoint: median survival time, dose: 50.0 mg/kg/injection, schedule: Q04DX002 (ip), vehicle: saline with Tween-80",100 % of control
same,T/C,"endpoint: median survival time, dose: 100.0 mg/kg/injection, schedule: Q04DX002 (ip), vehicle: saline with Tween-80",100 % of control
same,T/C,"endpoint: median survival time, dose: 200.0 mg/kg/injection, schedule: Q04DX002 (ip), vehicle: saline with Tween-80",88 % of control
same,T/C,"endpoint: median survival time, dose: 400.0 mg/kg/injection, schedule: Q04DX002 (ip), vehicle: saline with Tween-80",111 % of control
CC(=O)N1CCCCC1,T/C,"endpoint: mean survival time, dose: 25.0 mg/kg/injection, schedule: Q01DX009 (ip), vehicle: saline",102 % of control
same,T/C,"endpoint: mean survival time, dose: 50.0 mg/kg/injection, schedule: Q01DX009 (ip), vehicle: saline",96 % of control
same,T/C,"endpoint: mean survival time, dose: 100.0 mg/kg/injection, schedule: Q01DX009 (ip), vehicle: saline",102 % of control
CCCNC1=C(C)C(=O)C2=C(C1=O)[C@H](COC(N)=O)[C@]1(OC)[C@@H]3N[C@@H]3CN21,T/C,"endpoint: mean survival time, dose: 10.2 mg/kg/injection, schedule: Q01DX001 (ip), vehicle: saline",108 % of control
same,T/C,"endpoint: mean survival time, dose: 15.5 mg/kg/injection, schedule: Q01DX001 (ip), vehicle: saline",112 % of control
same,T/C,"endpoint: mean survival time, dose: 23.2 mg/kg/injection, schedule: Q01DX001 (ip), vehicle: saline",120 % of control
same,T/C,"endpoint: median survival time, dose: 0.39 mg/kg/injection, schedule: Q01DX009 (ip), vehicle: suspension in saline",93 % of control
same,T/C,"endpoint: median survival time, dose: 0.78 mg/kg/injection, schedule: Q01DX009 (ip), vehicle: saline",112 % of control
same,T/C,"endpoint: median survival time, dose: 0.78 mg/kg/injection, schedule: Q01DX009 (ip), vehicle: suspension in saline",93 % of control
same,T/C,"endpoint: median survival time, dose: 1.56 mg/kg/injection, schedule: Q01DX009 (ip), vehicle: saline",117 % of control
same,T/C,"endpoint: median survival time, dose: 1.56 mg/kg/injection, schedule: Q01DX009 (ip), vehicle: suspension in saline",102 % of control
same,T/C,"endpoint: median survival time, dose: 3.12 mg/kg/injection, schedule: Q01DX009 (ip), vehicle: suspension in saline",102 % of control
same,T/C,"endpoint: median survival time, dose: 6.25 mg/kg/injection, schedule: Q01DX009 (ip), vehicle: saline",166 % of control
same,T/C,"endpoint: median survival time, dose: 6.25 mg/kg/injection, schedule: Q01DX009 (ip), vehicle: suspension in saline",104 % of control
same,T/C,"endpoint: median survival time, dose: 12.5 mg/kg/injection, schedule: Q01DX009 (ip), vehicle: saline",100 % of control
same,T/C,"endpoint: median survival time, dose: 12.5 mg/kg/injection, schedule: Q01DX009 (ip), vehicle: suspension in saline",112 % of control
O=C(O)CCC(=O)c1cccc(O)c1,T/C,"endpoint: mean survival time, dose: 100.0 mg/kg/injection, schedule: Q01DX001 (ip), vehicle: saline",103 % of control
same,T/C,"endpoint: mean survival time, dose: 200.0 mg/kg/injection, schedule: Q01DX001 (ip), vehicle: saline",104 % of control
same,T/C,"endpoint: mean survival time, dose: 400.0 mg/kg/injection, schedule: Q01DX001 (ip), vehicle: saline",103 % of control
